19 compounds from the supplement of paper PMC11368000 can be followed below.

One experiment deals with 1535 (donor line of iPSC-derived cardiomyocytes). Description: POD (EC05) for increase in beat frequency (positive chronotrope) vs vehicle; higher = less potent (higher point of departure). The following applies: exposure time: 90 min. The protocol:
(§1)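 Human iPSC-derived cardiomyocytes from 16 donors were exposed for 90 min at 37 °C to each PFAS at 0.1, 1, 10 and 100 µM in 0.5% DMSO, 384-well plates. Kinetic Ca2+ flux (FLIPR) and Hoechst nuclei counts were normalised to vehicle wells and fitted with a hierarchical Bayesian Hill model to give donor-specific PODs: EC05 for beat-rate increase or decrease and for decay-to-rise ratio increase (QT proxy), EC95 for peak-frequency loss (asystole), EC10 for total cell number loss. 0.03 µM is the lower bound.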
The compound `NC(=O)C(F)(F)C(F)(F)C(F)(F)F` [Heptafluorobutyramide] yielded a POD vs vehicle of more than 100 µM.
The same measure, in the same setting: in the case of `OCC(F)(F)C(F)(F)C(F)(F)CO` [Hexafluoroamylene_glycol] it was more than 100 µM; in that of `COC(=O)C(F)(F)C(F)(F)OC(F)(C(F)(F)F)C(F)(F)OC(F)=C(F)F` (stereo not drawn) [Methyl_perfluoro(3-(1-ethenyloxypropan-2-yloxy)propanoate)], more than 100 µM; in that of `NC(=O)C(F)(F)C(F)(F)C(F)(F)C(F)(F)F` [Nonafluoropentanamide], more than 100 µM.
The same measure, in the same setting: for `NC(=O)C(F)(F)C(F)(F)C(F)(F)C(F)(F)C(N)=O` [Octafluoroadipamide] the value was more than 100 µM.
In turn, `O=C(O)C(F)(F)C(F)(F)C(F)(F)C(F)(F)C(=O)O` [Octafluoroadipic_acid] returned a POD vs vehicle of more than 100 µM.
On the same count and under the same terms, for `O=C(O)C(F)(F)C(F)(F)C(F)(F)OC(F)(F)F` [Perfluoro(4-methoxybutanoic)_acid] the value was more than 100 µM.
In turn, `O=C(O)C(F)(F)OC(F)(F)C(F)(F)OC(F)(F)C(F)(F)OC(F)(F)C(F)(F)C(F)(F)C(F)(F)F` [Perfluoro-3,6,9-trioxatridecanoic_acid] had a POD vs vehicle of more than 100 µM.
Still for that read-out and setting: in the case of `O=C(O)C(F)(F)OC(F)(F)C(F)(F)OC(F)(F)F` [Perfluoro-3,6-dioxaheptanoic_acid] it was more than 100 µM; in that of `O=C(O)C(F)(F)OC(F)(F)C(F)(F)OC(F)(F)C(=O)O` [Perfluoro-3,6-dioxaoctane-1,8-dioic_acid], more than 100 µM.

The subject of the next experiment is 1118 (donor line of iPSC-derived cardiomyocytes). The description is as above. The following applies: exposure time: 90 min. The protocol:
as §1
In the case of `OCC(F)(F)C(F)(F)C(F)(F)C(F)(F)C(F)(F)C(F)(F)F` [6:1 Fluorotelomer alcohol], the POD vs vehicle was more than 100 µM.
Still for that read-out and setting: in the case of `OCCC(F)(F)C(F)(F)C(F)(F)C(F)(F)C(F)(F)C(F)(F)F` [6:2 Fluorotelomer alcohol] it was more than 100 µM.
Same read-out and setting: for `O=S(=O)(O)CCC(F)(F)C(F)(F)C(F)(F)C(F)(F)C(F)(F)C(F)(F)F` [6:2 Fluorotelomer sulfonic acid] the value was more than 100 µM; for `OCCC(F)(F)C(F)(F)C(F)(F)C(F)(F)C(F)(F)C(F)(F)C(F)(F)C(F)(F)F` [8:2 Fluorotelomer alcohol], more than 100 µM.
The same measure, in the same setting: for `O=S(=O)(O)CCC(F)(F)C(F)(F)C(F)(F)C(F)(F)C(F)(F)C(F)(F)C(F)(F)C(F)(F)F` [8:2 Fluorotelomer sulfonic acid] the value was more than 100 µM; for `O=C(O)C(F)(F)C(F)(F)C(F)(F)C(F)(F)C(F)(F)C(F)(F)C(F)(F)C(F)(F)Cl` [9-Chloro-perfluorononanoic_acid], more than 100 µM.
In turn, `O=P(O)(O)CCC(F)(F)C(F)(F)C(F)(F)C(F)(F)C(F)(F)C(F)(F)C(F)(F)C(F)(F)F` [((Perfluorooctyl)ethyl)phosphonic_acid] registered a POD vs vehicle of more than 100 µM.
Still for that read-out and setting: for `OCC(F)(F)C(F)(F)C(F)(F)C(F)(F)C(F)(F)C(F)F` [Dodecafluoroheptanol] the value was more than 100 µM.
Same read-out and setting: in the case of `OCC(F)(F)C(F)(F)C(F)(F)F` [Heptafluorobutanol] it was more than 100 µM; in that of `NC(=O)C(F)(F)C(F)(F)C(F)(F)F` [Heptafluorobutyramide], more than 100 µM; in that of `OCC(F)(F)C(F)(F)C(F)(F)CO` [Hexafluoroamylene_glycol], more than 100 µM.
For `COC(=O)C(F)(F)C(F)(F)OC(F)(C(F)(F)F)C(F)(F)OC(F)=C(F)F` (stereo not drawn) [Methyl_perfluoro(3-(1-ethenyloxypropan-2-yloxy)propanoate)], the POD vs vehicle was more than 100 µM.
On the same count and under the same terms, for `NC(=O)C(F)(F)C(F)(F)C(F)(F)C(F)(F)F` [Nonafluoropentanamide] the value was more than 100 µM; for `NC(=O)C(F)(F)C(F)(F)C(F)(F)C(F)(F)C(N)=O` [Octafluoroadipamide], more than 100 µM.
On the same count and under the same terms, in the case of `O=C(O)C(F)(F)C(F)(F)C(F)(F)C(F)(F)C(=O)O` [Octafluoroadipic_acid] it was more than 100 µM.
On the same count and under the same terms, for `O=C(O)C(F)(F)C(F)(F)C(F)(F)OC(F)(F)F` [Perfluoro(4-methoxybutanoic)_acid] the value was more than 100 µM; for `O=C(O)C(F)(F)OC(F)(F)C(F)(F)OC(F)(F)C(F)(F)OC(F)(F)C(F)(F)C(F)(F)C(F)(F)F` [Perfluoro-3,6,9-trioxatridecanoic_acid], more than 100 µM; for `O=C(O)C(F)(F)OC(F)(F)C(F)(F)OC(F)(F)F` [Perfluoro-3,6-dioxaheptanoic_acid], more than 100 µM.
With `O=C(O)C(F)(F)OC(F)(F)C(F)(F)OC(F)(F)C(=O)O` [Perfluoro-3,6-dioxaoctane-1,8-dioic_acid], the POD vs vehicle was more than 100 µM.

The next experiment concerns 1434 (donor line of iPSC-derived cardiomyocytes). Described as above. The following applies: exposure time: 90 min. The protocol: as §1
For `OCC(F)(F)C(F)(F)C(F)(F)C(F)(F)C(F)(F)C(F)(F)F` [6:1 Fluorotelomer alcohol], the POD vs vehicle was more than 100 µM.
Still for that read-out and setting: in the case of `OCCC(F)(F)C(F)(F)C(F)(F)C(F)(F)C(F)(F)C(F)(F)F` [6:2 Fluorotelomer alcohol] it was 1.73 µM; in that of `O=S(=O)(O)CCC(F)(F)C(F)(F)C(F)(F)C(F)(F)C(F)(F)C(F)(F)F` [6:2 Fluorotelomer sulfonic acid], more than 100 µM; in that of `OCCC(F)(F)C(F)(F)C(F)(F)C(F)(F)C(F)(F)C(F)(F)C(F)(F)C(F)(F)F` [8:2 Fluorotelomer alcohol], more than 100 µM.
The same measure, in the same setting: for `O=S(=O)(O)CCC(F)(F)C(F)(F)C(F)(F)C(F)(F)C(F)(F)C(F)(F)C(F)(F)C(F)(F)F` [8:2 Fluorotelomer sulfonic acid] the value was more than 100 µM; for `O=C(O)C(F)(F)C(F)(F)C(F)(F)C(F)(F)C(F)(F)C(F)(F)C(F)(F)C(F)(F)Cl` [9-Chloro-perfluorononanoic_acid], more than 100 µM.
The same measure, in the same setting: for `O=P(O)(O)CCC(F)(F)C(F)(F)C(F)(F)C(F)(F)C(F)(F)C(F)(F)C(F)(F)C(F)(F)F` [((Perfluorooctyl)ethyl)phosphonic_acid] the value was more than 100 µM.
In turn, `OCC(F)(F)C(F)(F)C(F)(F)C(F)(F)C(F)(F)C(F)F` [Dodecafluoroheptanol] had a POD vs vehicle of more than 100 µM.
For `OCC(F)(F)C(F)(F)C(F)(F)F` [Heptafluorobutanol], the POD vs vehicle is more than 100 µM.
`NC(=O)C(F)(F)C(F)(F)C(F)(F)F` [Heptafluorobutyramide]: the POD vs vehicle was more than 100 µM.
`OCC(F)(F)C(F)(F)C(F)(F)CO` [Hexafluoroamylene_glycol] displayed a POD vs vehicle of more than 100 µM.
Still for that read-out and setting: for `COC(=O)C(F)(F)C(F)(F)OC(F)(C(F)(F)F)C(F)(F)OC(F)=C(F)F` (stereo not drawn) [Methyl_perfluoro(3-(1-ethenyloxypropan-2-yloxy)propanoate)] the value was more than 100 µM; for `NC(=O)C(F)(F)C(F)(F)C(F)(F)C(F)(F)F` [Nonafluoropentanamide], more than 100 µM; for `NC(=O)C(F)(F)C(F)(F)C(F)(F)C(F)(F)C(N)=O` [Octafluoroadipamide], more than 100 µM.
Still for that read-out and setting: in the case of `O=C(O)C(F)(F)C(F)(F)C(F)(F)C(F)(F)C(=O)O` [Octafluoroadipic_acid] it was more than 100 µM; in that of `O=C(O)C(F)(F)C(F)(F)C(F)(F)OC(F)(F)F` [Perfluoro(4-methoxybutanoic)_acid], more than 100 µM.
Compound `O=C(O)C(F)(F)OC(F)(F)C(F)(F)OC(F)(F)C(F)(F)OC(F)(F)C(F)(F)C(F)(F)C(F)(F)F` [Perfluoro-3,6,9-trioxatridecanoic_acid] came in with a POD vs vehicle of more than 100 µM.
On the same count and under the same terms, for `O=C(O)C(F)(F)OC(F)(F)C(F)(F)OC(F)(F)F` [Perfluoro-3,6-dioxaheptanoic_acid] the value was more than 100 µM.
Same read-out and setting: for `O=C(O)C(F)(F)OC(F)(F)C(F)(F)OC(F)(F)C(=O)O` [Perfluoro-3,6-dioxaoctane-1,8-dioic_acid] the value was more than 100 µM.
